Test [1] deals with amphetamine antibody (pooled antisera). Put plainly: Radioimmunoassay for amphetamine (displacement of 125I-labeled amphetamine analog from antibody). Format: binding, goats. The conditions noted are these: for Cross-reactivity: concentration of amphetamine equivalent in the assay to 10 μg/ml. of the test drug: pooled antisera selected for low cross-reactivity; for Relative Reactivity, Radioimmunoassay: cross-reactivity expressed as relative reactivity. (Displacement assays read how much labelled ligand stays bound in the presence of the test substance.)

The conditions of test [2]: cross-reactivity expressed as relative reactivity; Braitin and Sunshine 1973; cited from earlier work.
For test [3] the following is noted: cross-reactivity expressed as relative reactivity; Braitin and Sunshine 1973; cited from earlier work. This is another data set of the same source.

Here are results for 14 compounds from patent US4041076A, “Immunoassay for pharmacologically active phenethylamines” (Hoffmann-La Roche Inc., priority 1976, dated 1977).

On to `COc1ccc2c(c1)C13CCCCC1C(C2)N(C)CC3` (single isomer, unassigned) [Dextromethorphan], for which the “Cross-reactivity: concentration of amphetamine equivalent in the assay to 10 μg/ml. of the test drug” value (“Cross-reactivity: concentration” below) in test [1] (test drug at 10 μg/ml) is 0.003 µg/mL.
Turning to `CNC(C)CC1CCCC1` (centres unmarked) [Cyclopentamine], the “Relative Reactivity, Radioimmunoassay” value in test [1] came out at 0.02. Moreover, the “Relative Reactivity, FRAT” value in test [2] is on record as 0.2. Also, the “Relative Reactivity, EMIT” value in test [3] is recorded as 0.3.
`NCCc1ccc(O)c(O)c1` [Dopamine]: the “Cross-reactivity: concentration” value in test [1] (test drug at 10 μg/ml) turned out to be 0.015 µg/mL.
`CN[C@@H](C)[C@H](O)c1ccccc1` [Ephedrine (1-form), Ephedrine]: the “Relative Reactivity, Radioimmunoassay” value in test [1] is listed as 0.0003. The “Cross-reactivity: concentration” value in test [1] (test drug at 10 μg/ml) came to 0.003 µg/mL. Moreover, the “Relative Reactivity, FRAT” value in test [2] is listed as 0.15. The “Relative Reactivity, EMIT” value in test [3] is 0.2.
Regarding `CC(C)NCC(O)c1ccc(O)c(O)c1` (centres unmarked) [Isoproterenol], the “Cross-reactivity: concentration” value in test [1] (test drug at 10 μg/ml) worked out at 0 µg/mL.
As to `CC(COc1ccccc1)NC(C)C(O)c1ccc(O)cc1` (centres unmarked) [Isoxsuprine], the “Relative Reactivity, Radioimmunoassay” value in test [1] turned out to be 0. Further, in test [2], the “Relative Reactivity, FRAT” value was 0.05. Besides, in test [3], the “Relative Reactivity, EMIT” value is 0.2.
As for `CNC(C)(C)Cc1ccccc1` [Mephentermine], the “Relative Reactivity, EMIT” value in test [3] is 0.6.
Consider `NCC(O)c1ccc(O)c(O)c1` (centres unmarked) [Norepinephrine], for which, in test [1] (test drug at 10 μg/ml), the “Cross-reactivity: concentration” value came out at 0.003 µg/mL.
`CC(CCc1ccccc1)NC(C)C(O)c1ccc(O)cc1` (centres unmarked) [Nylidrin]: the “Relative Reactivity, FRAT” value in test [2] is given as 0.1.
For the compound `CC1NCCOC1c1ccccc1` (centres unmarked) [Phenmetrazine], the “Cross-reactivity: concentration” value in test [1] (test drug at 10 μg/ml) was determined as 0.06 µg/mL.
Turning to `CC(C)(N)Cc1ccccc1` [Phentermine], in test [1], the “Relative Reactivity, Radioimmunoassay” value came to 0.07. Moreover, the “Amphetamine equivalent when tested with 10 μg/ml. of test drug, individual sera” value in test [1] (individual sera (not the selected pool), test drug at 10 μg/ml) was in the range of 2 to 5 µg/mL. For the same compound, the “Cross-reactivity: concentration” value in test [1] (test drug at 10 μg/ml) worked out at 0.7 µg/mL. Further, the “Relative Reactivity, FRAT” value in test [2] is given as 1.0.
With `CC(N)C(O)c1ccccc1` (centres unmarked) [Phenylpropanolamine], the “Cross-reactivity: concentration” value in test [1] (test drug at 10 μg/ml) was found to be 0.17 µg/mL.
Take `CNC(C)CC1CCCCC1` (centres unmarked) [Propylhexedrine]: the “Relative Reactivity, Radioimmunoassay” value in test [1] is 0.03. The “Cross-reactivity: concentration” value in test [1] (test drug at 10 μg/ml) came out at 0.3 µg/mL. Besides, the “Relative Reactivity, FRAT” value in test [2] is reported as 0.5.
Consider `NCCc1ccc(O)cc1` [Tyramine], for which, in test [1] (test drug at 10 μg/ml), the “Cross-reactivity: concentration” value amounted to 0.17 µg/mL.
